Experimental findings from patent US20240287021A1, “QUATERNARY AMMONIUM SALT COMPOUND, PREPARATION METHOD THEREFOR AND USE THEREOF” (YICHANG HUMANWELL PHARMACEUTICAL CO., LTD., priority 2021, published 2024) are described below.

Assay [1] concerns sciatic nerve. In words: Local anesthetic effect of nerve block (sciatic nerve block model, hot plate test). It counts as in vivo. The conditions noted are these: rat, single dose 5 mL/Kg through right sciatic nerve, example compounds 6 mg/mL (8.6-10.1 mmol/L), hot plate 50°C; for Duration: levobupivacaine hydrochloride 2 mg/mL, MPE at least 50%. The protocol:
Three groups of fully acclimatized rats, one in each group, were given to the example compounds and levobupivacaine hydrochloride positive control, respectively.
Solution preparation: 2 mg/mL levobupivacaine hydrochloride injection: 2.670 mL of 7.5 mg/mL levobupivacaine hydrochloride injection (batch number: 92S0702) was pipetted by a pipette and added into a 10 mL volumetric flask, 0.9% NaCl solution was added until the concave liquid level was flush with the scale line, and the volumetric flask was turned upside down to mix the solution well to prepare 2 mg/ml levobupivacaine hydrochloride injection. 6 mg/mL (the molar concentration calculated from the molecular weight of the example compound ranged from 8.6 to 10.1 mmol/L) example compound solution: 19.80 mg of example compound was accurately weighed and added with 3.3 mL of 0.9% NaCl solution to prepare 6 mg/mL example compound solution.
Each rat was administered or control injected at 5 mL/Kg, in a single dose through right sciatic nerve, and thereafter, the rat was placed on a hot plate of a preheated 50±0.1° C. smart hot plate apparatus. The time required for the occurrence of the behavioral phenomena of avoiding thermal stimuli, such as obvious foot lifting and foot licking on the administered side of the rat was recorded, as the hot incubation period. The allowable maximum value of the hot incubation period was controlled at 60 s. If the rat still has no foot licking after 60 s, the hind foot of the rat was lifted manually to avoid tissue injury or hyperalgesia, and 60 s was taken as the hot incubation period of the rat. After each measurement, the hot plate was wiped in time to remove possible urine and feces, and was dried for subsequent testing.
The results of the hot incubation period were expressed with maximum proportionality effect (MPE) and calculated using the following equation:
[formula] • wherein B represents the basic hot incubation period of rats, P represents the allowable maximum hot incubation period, and C represents the hot incubation period at the detection time point.
It was specified that the tested time below 50% of the maximum proportionality effect was determined to be invalid, and the test was stopped if two consecutive tests were both below 50% of the maximum proportionality effect.
(In general: In hot-plate and tail-flick tests a longer latency is read as antinociception.)

The subject of assay [2] is rat subcutaneous infiltration models. Kind of assay: Subcutaneous infiltration local anesthetic effect (Von Frey stinging stimulus on back skin). It is filed as in vivo. As to conditions: SD rats. The protocol: SD rats (half male and half female) with a body weight of 190-210 grams were shaved and sterilized on the back, then a circle with a diameter of about 1.5 cm was drawn on one side of the bare back, and 0.5 mL of a drug-containing solution was subcutaneously injected into the skin in the center: normal saline was used as the solvent, 2 mg/mL levobupivacaine hydrochloride, 9 compounds of the present application were selected, at a concentration of 6 mg/mL (the equivalent molar concentration ranged from 8.6 to 10.1 mmol/L according to the corresponding molecular weights of the example compounds), with 10 rats in each group. Von Frey fiber filaments with 100 g strength were bound to a needle for topical skin stimulation. 1 min after drug injection, response of rats to stinging stimulus was tested. The test sites were six different points of the circle of the administration site, and whether behaviors such as skin contraction and avoidance occurred after stimulus was observed and recorded. Three points in the center of the circle and three points on the periphery of the circle were stimulated separately, and the number of occurrences of skin contraction and avoidance behavior was recorded as N/6. In terms of judgment, if there were 4 or more occurrences of avoidance and skin contraction behaviors, it was considered that the drug was ineffective; if there was a reaction on the periphery (≤3) and no reaction (≥1) in the center, it was considered that the drug was still effective; and if there was a reaction only at the points in the center, it was considered that the drug was ineffective. Each compound was tested with 10 rats.
Since the local anesthesia time longer than 72 hours may cause irreversible nerve injury, we subsequently halved (3 mg/mL) the dose of the compounds with the duration of action greater than 72 hours and then conducted an activity test to determine whether the local anesthesia effect could be restored in the skin infiltration models.

[3] abbreviates: 0.5 mL subcutaneous on back, compounds 6 mg/mL (8.6-10.1 mmol/L).
Setting [4] is: 0.5 mL subcutaneous on back, compounds 6 mg/mL (8.6-10.1 mmol/L), levobupivacaine hydrochloride 2 mg/mL.
The mark [5] stands for this setting: subcutaneous on back, compounds 3 mg/mL (4.4-5.1 mmol/L).

Counter-ions that a name gives are not always drawn.

For `CCCC[N+]1(CCCCCN2CCCCC2C(=O)Nc2c(C)cccc2C)CCCCC1C(=O)Nc1c(C)cccc1C` (stereo not drawn) [Compound 1], the values for the Duration in assay [1] and in assay [2] (setting [4]) were 24 h and 55 h, respectively. Besides, the Onset time in assay [1] and in assay [2] (setting [3]) was 1 min each time.

In assay [1], `CCCC[N+]1(CCCCCN2CCCCC2C(=O)Nc2ccccc2)CCCCC1C(=O)Nc1c(C)cccc1C` (stereo not drawn) [Compound 2] displayed a Duration of 15 h and an Onset time of 1 min.

For the compound `CCCC[N+]1(CCCCCN2CCCCC2C(=O)Nc2ccc(F)cc2)CCCCC1C(=O)Nc1c(C)cccc1C` (stereo not drawn) [Compound 3], in assay [1], the Duration was 18 h and the Onset time is 1 min.

As for `CCCC[N+]1(CCCCCN2CCCCC2C(=O)Nc2ccc(C)cc2)CCCCC1C(=O)Nc1c(C)cccc1C` (stereo not drawn) [Compound 4], the Duration in assay [1] was 48 h; in assay [2] (setting [4]), 72 to 96 h; in assay [2] (setting [5]) it was 56 h. Besides, the Onset time in assay [1], in assay [2] (setting [3]) and in assay [2] (setting [5]) was 1 min in each case.

In assay [1], `CCCC[N+]1(CCCCCN2CCCCC2C(=O)NC2CCCCC2)CCCCC1C(=O)Nc1c(C)cccc1C` (stereo not drawn) [Compound 6] registered a Duration of 12 h and an Onset time of 1 min.

As to `CCCC[N+]1(CCCCN2CCCCC2C(=O)Nc2ccc(F)cc2)CCCCC1C(=O)Nc1c(C)cccc1C` (stereo not drawn) [Compound 7], the values for the Duration in assay [1] and in assay [2] (setting [4]) were 30 h and 52 h, respectively. The Onset time in assay [1] is recorded as 1 min; in assay [2] (setting [3]), 2 min.

With `CCCC[N+]1(CCCCN2CCCCC2C(=O)Nc2ccccc2)CCCCC1C(=O)Nc1c(C)cccc1C` (stereo not drawn) [Compound 8], the values for the Duration in assay [1], in assay [2] (setting [4]) and in assay [2] (setting [5]) were 48 h, 72 to 96 h and 52 h, respectively. The Onset time in assay [1], in assay [2] (setting [3]) and in assay [2] (setting [5]) was 1 min in each case.

In assay [1], `CCCC[N+]1(CCCCN2CCCCC2C(=O)NC2CCCCC2)CCCCC1C(=O)Nc1c(C)cccc1C` (stereo not drawn) [Compound 9] gave a Duration of 24 h and an Onset time of 1 min.

With `CCC[N+]1(CCCCCN2CCCCC2C(=O)NC2CCCCC2)CCCCC1C(=O)Nc1c(C)cccc1C` (stereo not drawn) [Compound 11], in assay [1], the Duration worked out at 11 h and the Onset time worked out at 1 min.

On to `CCC[N+]1(CCCCCN2CCCCC2C(=O)Nc2ccc(C)cc2)CCCCC1C(=O)Nc1c(C)cccc1C` (stereo not drawn) [Compound 12], for which the Duration was 48 h in assay [1], 72 to 96 h in assay [2] (setting [4]) and 60 h in assay [2] (setting [5]). The Onset time in assay [1], in assay [2] (setting [3]) and in assay [2] (setting [5]) was 1 min in each case.

Turning to `CCCC[N+]1(CCCCN2CCCCC2C(=O)Nc2c(C)cccc2C)CCC[C@@H]1C(=O)Nc1c(C)cccc1C` (stereo partly drawn) [Compound 17], in assay [1], the Duration fell in the range of 12 to 24 h and the Onset time came to 1 min.

Turning to `CCCC[N+]1(CCCCN2CCCCC2C(=O)Nc2ccc(C)cc2)CCC[C@@H]1C(=O)Nc1c(C)cccc1C` (stereo partly drawn) [Compound 18], in assay [1], the Duration was determined as 20 h and the Onset time is listed as 1 min.

For the compound `CCCC[N+]1(CCCCN2CCCCC2C(=O)Nc2ccc(C(F)(F)F)cc2)CCC[C@@H]1C(=O)Nc1c(C)cccc1C` (stereo partly drawn) [Compound 20], in assay [1], the Duration fell in the range of 12 to 24 h and the Onset time amounted to 1 min.

`CCCC[N+]1(CCCCN2CCCCC2C(=O)Nc2ccc(F)cc2)CCC[C@@H]1C(=O)Nc1c(C)cccc1C` (stereo partly drawn) [Compound 21]: the Duration in assay [1] is 24 to 48 h; in assay [2] (setting [4]) it was 57 h. The Onset time in assay [1] and in assay [2] (setting [3]) was 1 min throughout.

For `CCCC[N+]1(CCCCCN2CCCCC2C(=O)Nc2c(C)cccc2C)CCC[C@@H]1C(=O)Nc1c(C)cccc1C` (stereo partly drawn) [Compound 22], the Duration in assay [1] was 24 to 48 h; in assay [2] (setting [4]), 60 h. For the same compound, the Onset time in assay [1] and in assay [2] (setting [3]) was 1 min throughout.

As for `CCCC[N+]1(CCCCN2CCCCC2C(=O)Nc2c(C)cccc2C)CCC[C@@H]1C(=O)Nc1c(C)cc(C)cc1C` (stereo partly drawn) [Compound 27], in assay [1], the Duration is 12 to 24 h and the Onset time worked out at 1 min.

In assay [1], `CCCC[N+]1(CCCCN2CCCCC2C(=O)Nc2ccc(C)cc2)CCC[C@@H]1C(=O)Nc1c(C)cc(C)cc1C` (stereo partly drawn) [Compound 28] showed a Duration of 12 to 24 h and an Onset time of 1 min.

On to `CCCC[N+]1(CCCCN2CCCCC2C(=O)Nc2ccc(F)cc2)CCC[C@@H]1C(=O)Nc1c(C)cc(C)cc1C` (stereo partly drawn) [Compound 29], for which the figures for the Duration in assay [1] and in assay [2] (setting [4]) were 24 to 48 h and 50 h, respectively. Moreover, the Onset time in assay [1] and in assay [2] (setting [3]) was 1 min in each case.

In assay [1], `CCCC[N+]1(CCCCCN2CCCCC2C(=O)Nc2ccc(F)cc2)CCC[C@@H]1C(=O)Nc1c(C)cc(C)cc1C` (stereo partly drawn) [Compound 32] came in with a Duration of 12 to 24 h and an Onset time of 1 min.

`CCCCN1CCCC[C@H]1C(=O)Nc1c(C)cccc1C` [Levobupivacaine hydrochloride, reference compound]: the values for the Duration in assay [1], in assay [2] (setting [4]) and in assay [2] (setting [5]) were 3 h, 4 h and 3 h, respectively.
